# According to patent US7833513B2, “Treatment of Alzheimer's Disease” (Rhode Island Hospital, priority 2004, dated 2010):
# “Also recorded” adds a separate entry of the source.
# Tests used:
# Format in all cases: in vivo, Long Evans rat
# IGF-I receptor = target: T1, IGF-I receptor (Rattus norvegicus, UniProt P24062); test: ic-STZ ± PPAR agonist: equilibrium and saturation binding to IGF-I receptors in the brain; conditions: for BMAX, IGF-1 receptor saturation binding in brains of treated rats: [125I]-IGF-I tracer, pooled brain membranes, 4 weeks after ic-STZ ± IP PPAR agonist; for IGF-I receptor binding: cerebellum
# T1 construct: from tissue; host or cells: rat brain (temporal lobe)
# Protocol: (§1) On the same day, sub-sets of the ic-STZ group were given a single intra-peritoneal injection of vehicle (saline), or a PPAR-α (GW7647; 25 ug/Kg), PPAR-δ (L-165,041; 2 μg/Kg), or PPAR-γ (F-L-Leu; 20 μg/Kg) activator (CalBiochem, Carlsbad, Calif.). […] In addition, at 4 weeks of age, memory and learning were evaluated using a Morris Water Maze (R. W. Hickey, M. Akino, S. Strausbaugh, G. M. De Courten-Myers. Use of the Morris water maze and acoustic startle chamber to evaluate neurologic injury after asphyxial arrest in rats. Pediatr Res 39(1) (1996), 77-84). The procedures and use of rats in these experiments were approved by the Lifespan-Rhode Island Hospital IACUC committee.
# Membrane protein extracted from fresh frozen brain tissue was used for competitive equilibrium and saturation binding assays. For total binding in equilibrium binding assays, duplicate samples were incubated in 100 μl reactions containing binding buffer (100 mM HEPES, pH 8.0, 118 mM NaCl, 1.2 mM MgSO4, 8.8 mM dextrose, 5 mM KCl, 1% bovine serum albumin) and 100 nCi/ml of [^125I] […] To measure total binding in saturation binding assays, samples from 8-12 brains per group were pooled in equal proportions, and duplicate samples were incubated in 100 μl reactions containing binding buffer and 0.0031 to 1 μCi/ml of [^125I] […] To detect non-specific binding in the equilibrium and saturation binding assays, duplicate reactions were incubated with the same concentrations of radiolabeled tracer plus 0.1 μM unlabeled (cold) competitive ligand. After 16 hours incubation at 4° C., bound radiolabeled tracer was precipitated with bovine gamma globulin and polyethylene glycol 8000. The precipitate (bound ligand) and supernatant (free ligand) fractions were counted in an LKB CompuGamma CS Gamma counter. Specific binding was calculated by subtracting fmols of non-specific binding, i.e. amount bound in the presence of excess cold ligand, from total fmols bound in the absence of unlabeled competitive ligand. GraphPad Prism 4 software (San Diego, Calif.) was used to calculate saturation binding (BMAX) and binding affinity (Kd) for each data set.
# [1] = tested on: ic-STZ-induced neurodegeneration; test: ic-STZ ± PPAR agonist: brain histopathology (H&E); conditions: for preservation of cerebellar cortical architecture (H&E) / preservation of hippocampi and temporal lobes (H&E): 4 weeks after ic-STZ ± single IP PPAR agonist
# Protocol: In addition, at 4 weeks of age, memory and learning were evaluated using a Morris Water Maze (R. W. Hickey, M. Akino, S. Strausbaugh, G. M. De Courten-Myers. Use of the Morris water maze and acoustic startle chamber to evaluate neurologic injury after asphyxial arrest in rats. Pediatr Res 39(1) (1996), 77-84). The procedures and use of rats in these experiments were approved by the Lifespan-Rhode Island Hospital IACUC committee.
# Histopathological and Immunohistochemical Staining Studies: Whole fresh brains were immersion fixed in Histofix (Amresco, Solon, Ohio) and then sectioned in the coronal plane along standardized landmarks, embedded in paraffin, and processed for histopathological studies. In addition, fresh brains were sectioned in the coronal plane to obtain a ˜3 mm thick slice that flanked the infundibulum. The 3-mm brain slice was snap frozen between two slabs of dry ice, and then stored at −80° C. for later RNA and protein studies. The residual tissue was immersion fixed and processed for histopathological studies. […] As negative controls for the immunostaining reactions, either the primary antibody was omitted or non-relevant monoclonal antibody to Hepatitis B virus was used in place of the relevant antibody. Immunoreactivity was detected using the avidin-biotin horseradish peroxidase complex method (S. M. de la Monte, T. Luong, T. R. Neely, D. Robinson, J. R. Wands. Mitochondrial DNA damage as a mechanism of cell loss in Alzheimer's disease. Lab Invest 80(8) (2000), 1323-35). All sections were examined under code.
# [2] = tested on: phospho-GSK-3β, GSK-3β, phospho-Tau, Tau; test: ic-STZ ± PPAR agonist: Western blot analysis of GSK-3β and Tau; conditions: hypothalamus
# Protocol: as §1
# Western Blot Analysis: Western blot analysis was used to assess the levels of Tau, phospho-Tau, GSK-3β, phospho-GSK-3β, and β-actin in temporal lobe tissue (E. J. Rivera, A. Goldin, N. Fulmer, R. Tavares, J. R. Wands, S. M. de la Monte, J. Alzheimers Dis 8(3) (2005), 247-68). Briefly, samples containing 40 μg protein were fractionated by sodium dodecyl sulfate, polyacrylamide gel electrophoresis (SDS-PAGE) (F. Ausubel, R. Brent, R. Kingston, D. Moore, J. Seidman, J. Smnith, et al. Current Protocols in Molecular Biology. (2000)). and transferred to PVDF membranes. Non-specific binding sites were adsorbed with SuperBlock-TBS (Pierce, Rockford, Ill.). Membranes were incubated over night at 4° C. with primary antibody (0.1-1 μg/ml-individually optimized) diluted in Tris-buffered saline (TBS; 50 mM Tris, 150 mM NaCl, pH 7.4) containing 0.5% bovine serum albumin, 0.05% Tween-20, and 0.025% NaN3 (TBST-BSA). Immunoreactivity was detected using horseradish peroxidase (HRP) conjugated IgG (Pierce, Rockford, Ill.) diluted to 1:50,000 in TBST+0.5% cassein, Western Lightning enhanced chemiluminescence reagents (Perkin Elmer Life Sciences Inc., Boston, Mass.), and digital imaging. Immunoreactivity was quantified using the Kodak Digital Science Imaging Station (NEN Life Sciences, Boston, Mass.).
# PPAR Agonist Treatment Reduces ic-STZ-Mediated AD-Type Neurodegeneration: In AD, the neuronal cytoskeletal lesions that correlate with dementia, i.e. neurofibrillary tangles, dystrophic neuritis, and neuropil threads, contain insoluble fibrillar structures that are generated in part from hyper-phosphorylated Tau (K. Iqbal, C. Alonso Adel, S. Chen, M. O. Chohan, E. El-Akkad, C. X. Gong, et al. Tau pathology in Alzheimer disease and other tauopathies. Biochim Biophys Acta 1739(2-3) (2005), 198-210). […] J Alzheimers Dis 7(1) (2005), 63-80). […] Therefore, it was of interest to characterize the effects of PPAR agonists on GSK-3β activity and Tau phosphorylation in ic-STZ-treated brains. The levels of phospho-GSK-3β, GSK-3β, phospho-Tau, Tau, and β-actin ([…]) were examined in temporal lobe and hypothalamus homogenates by Western blot analysis. Immunoreactivity was detected and quantified by digital imaging, and the mean levels of protein expression and ratios of phospho-GSK-3β/GSK-3β and phospho-Tau/Tau measured in 4 replicate samples are depicted graphically (FIG. 31). Phospho-GSK-3β immunoreactivity was detected with antibodies directed against the Ser21/9 motif, corresponding to the inactivate form of the kinase.
# T1 sequence (P24062 31-737 limits assumed): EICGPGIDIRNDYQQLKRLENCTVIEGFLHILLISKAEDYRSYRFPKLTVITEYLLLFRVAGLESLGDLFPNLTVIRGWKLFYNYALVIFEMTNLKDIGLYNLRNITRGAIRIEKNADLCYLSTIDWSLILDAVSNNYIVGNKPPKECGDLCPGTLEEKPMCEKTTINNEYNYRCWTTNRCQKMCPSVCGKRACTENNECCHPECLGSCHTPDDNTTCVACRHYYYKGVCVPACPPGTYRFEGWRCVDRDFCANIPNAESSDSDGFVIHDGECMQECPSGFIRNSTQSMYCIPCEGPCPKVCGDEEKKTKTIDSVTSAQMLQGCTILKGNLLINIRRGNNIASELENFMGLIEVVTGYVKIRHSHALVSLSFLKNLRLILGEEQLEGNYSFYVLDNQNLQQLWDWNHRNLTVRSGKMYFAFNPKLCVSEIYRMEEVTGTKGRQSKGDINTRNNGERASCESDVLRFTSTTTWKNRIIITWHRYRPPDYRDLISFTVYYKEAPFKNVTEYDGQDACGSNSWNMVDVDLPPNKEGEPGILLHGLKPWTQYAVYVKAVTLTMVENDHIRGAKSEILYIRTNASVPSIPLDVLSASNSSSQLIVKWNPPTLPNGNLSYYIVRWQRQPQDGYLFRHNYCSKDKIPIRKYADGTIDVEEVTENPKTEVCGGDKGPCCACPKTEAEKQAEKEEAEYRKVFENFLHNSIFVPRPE
# T1 sequence (P24062 742-1370 limits assumed): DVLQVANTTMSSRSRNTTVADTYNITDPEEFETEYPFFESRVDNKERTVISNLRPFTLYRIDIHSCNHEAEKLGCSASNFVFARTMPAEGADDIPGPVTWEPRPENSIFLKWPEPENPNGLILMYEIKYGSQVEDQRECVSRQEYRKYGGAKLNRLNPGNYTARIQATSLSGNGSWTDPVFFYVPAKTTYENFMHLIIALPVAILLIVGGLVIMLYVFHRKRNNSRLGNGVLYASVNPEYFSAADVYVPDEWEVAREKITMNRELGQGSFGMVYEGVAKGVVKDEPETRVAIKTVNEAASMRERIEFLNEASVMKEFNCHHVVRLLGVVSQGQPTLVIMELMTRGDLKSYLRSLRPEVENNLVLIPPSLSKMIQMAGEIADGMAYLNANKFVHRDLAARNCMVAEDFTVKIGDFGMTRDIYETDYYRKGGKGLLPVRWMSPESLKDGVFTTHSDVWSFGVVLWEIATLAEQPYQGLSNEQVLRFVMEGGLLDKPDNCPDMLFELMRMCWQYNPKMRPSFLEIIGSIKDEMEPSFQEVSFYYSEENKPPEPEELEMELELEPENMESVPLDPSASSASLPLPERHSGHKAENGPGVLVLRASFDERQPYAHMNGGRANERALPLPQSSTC
Structure (SMILES),"BMAX, IGF-1 receptor saturation binding in brains of treated rats (IGF-I receptor) [fmol/mg protein]",preservation of cerebellar cortical architecture (H&E) [1],preservation of hippocampi and temporal lobes (H&E) [1],phospho-GSK-3β level [2],phospho-Tau level relative to control [2],total Tau protein level [2],IGF-I receptor binding (IGF-I receptor),"BMAX for IGF-I receptor (in words) vs ic-STZ group (IGF-I receptor; rat, in vivo)","share of temporal cortex thickness spanned by the horizontal scale bar ([1]; FIG. 25A-E, control 30%) [%]",binding to IGF-I receptors (IGF-I receptor; hypothalamus or cerebellum),binding to IGF-I receptors (IGF-I receptor; temporal lobe)
"CC(C)(Sc1ccc(CCN(CCCCC2CCCCC2)C(=O)NC2CCCCC2)cc1)C(=O)O [PPAR-α agonist, GW7647]",0.6361,moderately effective; also recorded: markedly reduced,less effective than the PPAR-δ agonist,significantly increased,significantly higher,slightly higher levels of Tau relative to all other groups,,,,,
"CC(C)C[C@H](NC(=O)OCC1c2ccccc2-c2ccccc21)C(=O)O [PPAR-γ agonist, F-L-Leu]",3.123,ineffective,least effective,significantly reduced,moderately reduced,,significantly increased,increased,,,
"CCCc1c(OCCCOc2ccc(OCC(=O)O)cc2)ccc(C(C)=O)c1O [PPAR-δ agonist, L-165,041]",0.7399,moderately effective; also recorded: markedly reduced,most striking therapeutic rescue,significantly increased,moderately reduced,,significantly increased,,30,,
CN(N=O)C(=O)NC1C(O)OC(CO)C(O)C1O (centres unmarked) [STZ],1.204,,,,,,,,,not in the hypothalamus or cerebellum,significantly reduced
